From the kinase profiling compilation of Christmann-Franck et al. (2016)

Assays:
Assay in all cases: radiometric filter-binding kinase assay
[1] = target: DYRK3 (human) (UniProt O43781)
[2] = target: CSNK1D (human) (UniProt P48730)
[3] = target: TBK1 (human) (UniProt Q9UHD2)
[4] = target: MAPK8 (human) (UniProt P45983)
[5] = target: IKBKE (human) (UniProt Q14164)
[6] = target: NEK6 (human) (UniProt Q9HC98)
[7] = target: MAPK3 (human) (UniProt P27361)
[8] = target: CaMK1 (human) (UniProt Q14012)
[9] = system: AKT1 (human), P31749 [S473D]
Chain of AKT1 (human), P31749 [S473D] (P31749 whole entry S473D, looked up): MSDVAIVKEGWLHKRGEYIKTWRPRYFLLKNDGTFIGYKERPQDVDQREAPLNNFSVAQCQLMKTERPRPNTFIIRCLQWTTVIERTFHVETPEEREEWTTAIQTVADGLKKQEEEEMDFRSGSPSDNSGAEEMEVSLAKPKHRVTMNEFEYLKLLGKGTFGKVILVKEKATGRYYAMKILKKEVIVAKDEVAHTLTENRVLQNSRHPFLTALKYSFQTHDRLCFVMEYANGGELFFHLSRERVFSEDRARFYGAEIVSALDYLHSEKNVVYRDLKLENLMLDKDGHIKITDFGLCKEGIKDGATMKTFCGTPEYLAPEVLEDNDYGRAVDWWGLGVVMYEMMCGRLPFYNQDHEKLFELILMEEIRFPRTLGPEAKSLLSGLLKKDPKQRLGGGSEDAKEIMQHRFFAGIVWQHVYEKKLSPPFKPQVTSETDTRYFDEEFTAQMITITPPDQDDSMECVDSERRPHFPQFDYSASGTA

[10] = target: MARK3 (human) (UniProt P27448)
[11] = target: DYRK1A (human) (UniProt Q13627)
[12] = target: MAPKAPK2 (human) (UniProt P49137)
[13] = target: MKNK1 (human) (UniProt Q9BUB5)
[14] = target: MKNK2 (human) (UniProt Q9HBH9)
Chain of MKNK2 (human) (Q9HBH9 whole entry, looked up): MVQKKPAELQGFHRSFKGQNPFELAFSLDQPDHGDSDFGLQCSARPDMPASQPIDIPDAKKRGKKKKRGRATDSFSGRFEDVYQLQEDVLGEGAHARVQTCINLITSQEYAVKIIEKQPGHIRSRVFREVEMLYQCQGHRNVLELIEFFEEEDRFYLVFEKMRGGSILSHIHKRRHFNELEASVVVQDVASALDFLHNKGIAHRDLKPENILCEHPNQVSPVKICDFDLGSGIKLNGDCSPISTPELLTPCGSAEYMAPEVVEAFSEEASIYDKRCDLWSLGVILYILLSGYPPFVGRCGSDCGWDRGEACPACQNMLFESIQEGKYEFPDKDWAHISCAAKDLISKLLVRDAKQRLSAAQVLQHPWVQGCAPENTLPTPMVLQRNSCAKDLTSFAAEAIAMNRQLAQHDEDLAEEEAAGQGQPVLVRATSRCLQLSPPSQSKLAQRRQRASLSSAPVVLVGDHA

[15] = target: MAPK9 (human) (UniProt P45984)
[16] = target: STK3 (human) (UniProt Q13188)
[17] = target: CHEK2 (human) (UniProt O96017)
[18] = system: RPS6KB1 (human), P23443 [T412E]
Chain of RPS6KB1 (human), P23443 [T412E] (P23443 whole entry T412E, looked up): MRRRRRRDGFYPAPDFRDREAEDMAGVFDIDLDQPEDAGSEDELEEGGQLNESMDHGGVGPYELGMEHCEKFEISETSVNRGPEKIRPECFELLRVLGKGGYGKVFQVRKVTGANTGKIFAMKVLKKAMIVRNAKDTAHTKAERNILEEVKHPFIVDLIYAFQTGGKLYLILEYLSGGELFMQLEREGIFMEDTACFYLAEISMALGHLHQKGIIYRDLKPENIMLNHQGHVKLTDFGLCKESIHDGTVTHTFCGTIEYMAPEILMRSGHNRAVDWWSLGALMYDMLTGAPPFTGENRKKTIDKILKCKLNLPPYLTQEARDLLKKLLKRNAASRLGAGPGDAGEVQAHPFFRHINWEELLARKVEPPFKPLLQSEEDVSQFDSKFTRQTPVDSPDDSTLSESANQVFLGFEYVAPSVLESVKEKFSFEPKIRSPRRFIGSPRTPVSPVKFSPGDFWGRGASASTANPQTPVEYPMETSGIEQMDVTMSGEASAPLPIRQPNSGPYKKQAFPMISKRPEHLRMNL

[19] = target: RPS6KA1 KD1 KD2 (human) (UniProt Q15418)
Chain of RPS6KA1 KD1 KD2 (human) (Q15418 whole entry, looked up): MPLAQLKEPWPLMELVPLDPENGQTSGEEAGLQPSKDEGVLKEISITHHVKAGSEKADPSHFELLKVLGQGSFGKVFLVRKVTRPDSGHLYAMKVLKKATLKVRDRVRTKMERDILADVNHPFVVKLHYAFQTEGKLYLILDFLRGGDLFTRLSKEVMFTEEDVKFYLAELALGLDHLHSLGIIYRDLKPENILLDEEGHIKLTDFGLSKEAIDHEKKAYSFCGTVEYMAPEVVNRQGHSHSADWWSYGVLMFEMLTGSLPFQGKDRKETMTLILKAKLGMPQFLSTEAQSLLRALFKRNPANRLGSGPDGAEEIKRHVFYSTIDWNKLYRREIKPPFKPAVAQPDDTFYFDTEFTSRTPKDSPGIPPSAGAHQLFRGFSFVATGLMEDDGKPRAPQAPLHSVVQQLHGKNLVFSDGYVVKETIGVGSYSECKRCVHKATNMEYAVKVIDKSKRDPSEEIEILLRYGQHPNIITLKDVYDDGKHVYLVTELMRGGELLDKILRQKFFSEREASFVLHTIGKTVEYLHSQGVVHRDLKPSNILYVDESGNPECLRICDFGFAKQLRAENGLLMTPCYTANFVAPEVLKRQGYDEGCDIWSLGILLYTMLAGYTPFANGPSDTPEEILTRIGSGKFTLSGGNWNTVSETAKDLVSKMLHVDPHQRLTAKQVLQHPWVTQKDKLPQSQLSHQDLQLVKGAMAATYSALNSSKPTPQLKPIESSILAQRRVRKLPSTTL

[20] = target: IKBKB (human) (UniProt O14920)
Chain of IKBKB (human) (O14920 whole entry, looked up): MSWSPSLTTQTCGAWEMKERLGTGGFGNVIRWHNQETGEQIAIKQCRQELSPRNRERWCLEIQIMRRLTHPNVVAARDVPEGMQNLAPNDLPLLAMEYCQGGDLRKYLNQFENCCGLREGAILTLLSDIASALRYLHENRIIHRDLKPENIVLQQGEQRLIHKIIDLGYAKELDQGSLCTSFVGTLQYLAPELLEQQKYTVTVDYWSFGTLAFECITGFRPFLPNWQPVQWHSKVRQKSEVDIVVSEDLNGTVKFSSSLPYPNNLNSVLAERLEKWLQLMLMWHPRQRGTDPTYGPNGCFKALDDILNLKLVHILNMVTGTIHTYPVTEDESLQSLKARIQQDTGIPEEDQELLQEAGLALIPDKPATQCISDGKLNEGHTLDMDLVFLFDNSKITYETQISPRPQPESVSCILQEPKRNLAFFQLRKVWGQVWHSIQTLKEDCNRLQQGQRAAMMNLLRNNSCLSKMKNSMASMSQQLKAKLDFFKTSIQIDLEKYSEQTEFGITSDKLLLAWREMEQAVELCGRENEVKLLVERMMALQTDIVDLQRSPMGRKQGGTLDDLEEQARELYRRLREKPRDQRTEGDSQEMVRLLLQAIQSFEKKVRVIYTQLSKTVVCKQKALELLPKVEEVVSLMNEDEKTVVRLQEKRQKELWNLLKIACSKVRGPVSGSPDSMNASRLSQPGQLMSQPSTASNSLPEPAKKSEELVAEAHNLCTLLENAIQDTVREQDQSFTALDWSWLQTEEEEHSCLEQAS

[21] = target: NEK2 (human) (UniProt P51955)
[22] = target: PAK4 (human) (UniProt O96013)
Chain of PAK4 (human) (O96013 whole entry, looked up): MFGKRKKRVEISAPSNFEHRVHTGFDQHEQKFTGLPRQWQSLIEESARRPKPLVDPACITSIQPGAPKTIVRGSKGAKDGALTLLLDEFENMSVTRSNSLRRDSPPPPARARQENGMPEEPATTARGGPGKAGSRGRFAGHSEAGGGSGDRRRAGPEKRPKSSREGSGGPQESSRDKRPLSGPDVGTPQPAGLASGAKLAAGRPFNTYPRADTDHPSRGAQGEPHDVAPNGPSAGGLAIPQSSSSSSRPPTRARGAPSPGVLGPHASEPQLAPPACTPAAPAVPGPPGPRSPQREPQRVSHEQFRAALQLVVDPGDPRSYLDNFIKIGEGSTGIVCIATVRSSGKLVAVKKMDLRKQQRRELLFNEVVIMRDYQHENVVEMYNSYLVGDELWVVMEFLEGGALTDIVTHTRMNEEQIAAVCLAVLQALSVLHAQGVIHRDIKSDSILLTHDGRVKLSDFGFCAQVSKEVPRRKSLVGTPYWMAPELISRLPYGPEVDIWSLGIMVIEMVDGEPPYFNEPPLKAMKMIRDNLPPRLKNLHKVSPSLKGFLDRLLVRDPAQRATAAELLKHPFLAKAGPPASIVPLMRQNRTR

[23] = target: PIM1 (human) (UniProt P11309)
Chain of PIM1 (human) (P11309 whole entry, looked up): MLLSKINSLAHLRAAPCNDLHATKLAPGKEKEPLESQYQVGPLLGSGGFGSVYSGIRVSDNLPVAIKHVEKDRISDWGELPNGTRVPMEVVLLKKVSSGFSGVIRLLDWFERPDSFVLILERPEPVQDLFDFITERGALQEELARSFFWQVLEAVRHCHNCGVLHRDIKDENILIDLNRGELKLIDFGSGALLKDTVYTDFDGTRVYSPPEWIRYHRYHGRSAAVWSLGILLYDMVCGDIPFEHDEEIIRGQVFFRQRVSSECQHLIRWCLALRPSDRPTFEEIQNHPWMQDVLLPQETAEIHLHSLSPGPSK

[24] = target: MAPK14 (human) (UniProt Q16539)
Chain of MAPK14 (human) (Q16539 whole entry, looked up): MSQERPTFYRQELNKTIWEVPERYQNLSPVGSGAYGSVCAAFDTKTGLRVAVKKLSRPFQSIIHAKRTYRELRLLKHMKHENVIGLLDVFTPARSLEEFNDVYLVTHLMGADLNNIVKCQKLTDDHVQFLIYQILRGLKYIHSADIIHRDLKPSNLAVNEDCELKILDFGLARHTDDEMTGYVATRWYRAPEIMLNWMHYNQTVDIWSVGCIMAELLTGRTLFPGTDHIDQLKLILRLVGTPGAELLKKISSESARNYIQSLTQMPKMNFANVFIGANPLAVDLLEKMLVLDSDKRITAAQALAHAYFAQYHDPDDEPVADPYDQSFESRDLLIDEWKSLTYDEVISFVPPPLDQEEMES

[25] = target: MAP2K1 (human) (UniProt Q02750)

Chain of CSNK1D (human) (P48730 whole entry, looked up): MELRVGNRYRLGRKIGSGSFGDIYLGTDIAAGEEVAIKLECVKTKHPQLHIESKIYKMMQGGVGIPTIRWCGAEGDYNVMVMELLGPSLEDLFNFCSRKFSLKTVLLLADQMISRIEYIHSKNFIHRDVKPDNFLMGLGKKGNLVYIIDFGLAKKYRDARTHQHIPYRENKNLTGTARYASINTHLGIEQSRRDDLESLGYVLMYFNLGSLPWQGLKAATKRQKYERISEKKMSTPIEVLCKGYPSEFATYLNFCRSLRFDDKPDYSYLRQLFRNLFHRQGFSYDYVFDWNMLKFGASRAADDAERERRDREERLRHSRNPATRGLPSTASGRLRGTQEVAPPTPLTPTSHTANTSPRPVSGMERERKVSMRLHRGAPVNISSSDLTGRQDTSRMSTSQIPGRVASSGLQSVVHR
Chain of NEK6 (human) (Q9HC98 whole entry, looked up): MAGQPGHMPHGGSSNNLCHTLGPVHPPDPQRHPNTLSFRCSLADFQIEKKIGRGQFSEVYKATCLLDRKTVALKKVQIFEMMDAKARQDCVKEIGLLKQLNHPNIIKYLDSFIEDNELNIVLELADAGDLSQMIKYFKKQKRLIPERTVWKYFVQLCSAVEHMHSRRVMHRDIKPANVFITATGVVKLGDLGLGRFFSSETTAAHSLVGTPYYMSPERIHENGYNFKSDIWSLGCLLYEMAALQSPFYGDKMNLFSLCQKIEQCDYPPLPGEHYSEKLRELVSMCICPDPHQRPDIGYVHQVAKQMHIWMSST

residual activity ([1]; compound 0.1 µM): 106%
residual activity ([1]; compound 1.0 µM): 92%
residual activity ([1]; compound 10.0 µM): 83%
residual activity ([2]; compound 0.1 µM): 96%
residual activity ([2]; compound 1.0 µM): 93%
residual activity ([2]; compound 10.0 µM): 71%
residual activity ([3]; compound 0.1 µM): 108%
residual activity ([3]; compound 1.0 µM): 105%
residual activity ([3]; compound 10.0 µM): 97%
residual activity ([4]; compound 1.0 µM): 107%
residual activity ([4]; compound 10.0 µM): 95%
residual activity ([5]; compound 0.1 µM): 103%
residual activity ([5]; compound 1.0 µM): 99%
residual activity ([5]; compound 10.0 µM): 96%
residual activity ([6]; compound 0.1 µM): 88%
residual activity ([6]; compound 1.0 µM): 75%
residual activity ([6]; compound 10.0 µM): 80%
residual activity ([7]; compound 0.1 µM): 93%
residual activity ([7]; compound 1.0 µM): 85%
residual activity ([8]; compound 0.1 µM): 106%
residual activity ([8]; compound 10.0 µM): 78%
residual activity ([9]; compound 0.1 µM): 87%
residual activity ([9]; compound 1.0 µM): 69%
residual activity ([9]; compound 10.0 µM): 52%
residual activity ([10]; compound 0.1 µM): 94%
residual activity ([10]; compound 1.0 µM): 83%
residual activity ([10]; compound 10.0 µM): 82%
residual activity ([11]; compound 0.1 µM): 99%
residual activity ([11]; compound 1.0 µM): 94%
residual activity ([11]; compound 10.0 µM): 85%
residual activity ([12]; compound 1.0 µM): 105%
residual activity ([12]; compound 10.0 µM): 78%
residual activity ([13]; compound 0.1 µM): 101%
residual activity ([13]; compound 1.0 µM): 91%
residual activity ([13]; compound 10.0 µM): 79%
residual activity ([14]; compound 0.1 µM): 92%
residual activity ([14]; compound 1.0 µM): 93%
residual activity ([14]; compound 10.0 µM): 79%
residual activity ([15]; compound 0.1 µM): 92%
residual activity ([15]; compound 1.0 µM): 93%
residual activity ([15]; compound 10.0 µM): 98%
residual activity ([16]; compound 0.1 µM): 95%
residual activity ([16]; compound 1.0 µM): 85%
residual activity ([16]; compound 10.0 µM): 77%
residual activity ([17]; compound 0.1 µM): 101%
residual activity ([17]; compound 1.0 µM): 73%
residual activity ([17]; compound 10.0 µM): 72%
residual activity ([18]; compound 0.1 µM): 39%
residual activity ([18]; compound 1.0 µM): 16%
residual activity ([18]; compound 10.0 µM): 6%
residual activity ([19]; compound 0.1 µM): 46%
residual activity ([19]; compound 1.0 µM): 33%
residual activity ([19]; compound 10.0 µM): 0%
residual activity ([20]; compound 0.1 µM): 104%
residual activity ([20]; compound 1.0 µM): 119%
residual activity ([20]; compound 10.0 µM): 102%
residual activity ([21]; compound 0.1 µM): 95%
residual activity ([21]; compound 1.0 µM): 94%
residual activity ([21]; compound 10.0 µM): 91%
residual activity ([22]; compound 0.1 µM): 93%
residual activity ([22]; compound 1.0 µM): 88%
residual activity ([22]; compound 10.0 µM): 88%
residual activity ([23]; compound 0.1 µM): 88%
residual activity ([23]; compound 1.0 µM): 90%
residual activity ([23]; compound 10.0 µM): 78%
residual activity ([24]; compound 0.1 µM): 86%
residual activity ([24]; compound 1.0 µM): 79%
residual activity ([24]; compound 10.0 µM): 86%
residual activity ([25]; compound 0.1 µM): 117%
residual activity ([25]; compound 1.0 µM): 104%
residual activity ([25]; compound 10.0 µM): 96%
SMILES: CCc1cncnc1N1CCN(Cc2nc3cc(C(F)(F)F)ccc3[nH]2)CC1
